Source: patent US8853219B2, “Compounds and compositions for cognition-enhancement, methods of making, and methods of treating” (NeuroSolis, Inc., priority 2010, dated 2014)
Positions count from the first letter of the chain named.

Columns and labels:
[1] = tested on: pooled male human liver microsomes; assay: Metabolism by human liver microsomes; format: in vitro ADME; conditions: 6 hours incubation
Experimental: Compounds were incubated with pooled male human liver microsomes (BD Biosciences, #452172) and an NADP-regenerating system in a phosphate buffer (pH 7.4) for a total of 6 hours. Aliquots were removed every 2 hours, and 1% formic acid was added to halt the reaction. Samples were centrifuged, filtered through 0.2 micron spinfilter and the amount of each compound in the supernatants was quantitated using LC/MS/MS.

[2] = tested on: pooled male Sprague-Dawley rat liver microsomes; assay: Metabolism by rat liver microsomes; format: in vitro ADME; conditions: 6 hours incubation
Experimental: Compounds were incubated with pooled male Sprague-Dawley rat liver microsomes (BD Biosciences, #452501) and an NADP-regenerating system in a phosphate buffer (pH 7.4) for a total of 6 hours. Aliquots were removed every 2 hours, and 1% formic acid was added to halt the reaction. Samples were centrifuged, filtered through 0.2 micron spinfilter and the amount of each compound in the supernatants was quantitated using LC/MS/MS.

[3] = molecular target: T1, human muscarinic M1 receptors (Homo sapiens, UniProt P11229); assay: Stimulation of inositol phosphate production in A9L cells, human M1 (IPOne TR-FRET); format: cell-based; conditions: huM1/A9L versus huM3/A9L
T1 construct: host or cells: A9L cells
T1 sequence (P11229 1-460): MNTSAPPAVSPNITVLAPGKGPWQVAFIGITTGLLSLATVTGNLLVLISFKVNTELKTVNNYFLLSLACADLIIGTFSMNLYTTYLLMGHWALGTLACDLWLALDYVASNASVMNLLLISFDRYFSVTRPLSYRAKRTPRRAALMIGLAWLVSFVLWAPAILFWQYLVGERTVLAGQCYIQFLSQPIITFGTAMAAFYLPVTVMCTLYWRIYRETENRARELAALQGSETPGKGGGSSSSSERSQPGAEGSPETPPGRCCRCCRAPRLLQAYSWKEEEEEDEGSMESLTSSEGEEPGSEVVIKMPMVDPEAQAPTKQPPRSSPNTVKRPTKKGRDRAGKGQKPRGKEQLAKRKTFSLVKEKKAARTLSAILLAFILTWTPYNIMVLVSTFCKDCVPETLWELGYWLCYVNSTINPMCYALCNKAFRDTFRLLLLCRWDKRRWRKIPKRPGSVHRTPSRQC
Experimental: Muscarinic M1 and M3 agonist activity was evaluated by measuring the stimulation of inositol phosphate (IP) production in the presence of lithium chloride from A9L cells transfected with expression plasmids containing human muscarinic M1 and M3 receptors, respectively. The cell lines were a gift from Professor W Messer, and the methods were as described in Tejada F R et al. J. Med. Chem. 2006; 49: 7518-31 except that the assay was scaled down to run in 384 well plates, and IP was measured in the cell lysates using the non-isotopic IPOne TR-FRET assay (CIS-BIO, Inc).
Cells were grown to 90% confluence in 384 well hi-base plates (Greiner Bio-One), compounds were added at suitable concentrations in growth medium containing 10 mM LiCL, buffered with an extra 10 mM HEPES (pH7.4), and incubated for 60 minutes at 37° C. Cells were lysed and assayed for IP following the manufacturer's instructions.
The value for a full agonist is 100%, while partial agonists give values below 100%.

[4] = Delivery of MCD-386 in rats by iontophoresis patch versus oral gavage: plasma concentration; format: in vivo; conditions: rat
Experimental: Two patches were made up, consisting (in order from the outer layer to the skin contacting surface, respectively): adhesive tape (Transpore, 27 mm wide, 3M), circular stainless steel electrodes (22 mm dia) with a central hole for a stainless steel machine screw to which the electrode wire was attached, and 2 layers of 3mM CHR filter paper (Cat #3030-861, Whatman International, Ltd).
The mid-dorsal area of a Long Evans Hooded rat (approximate weight, 320 grams), surgically prepared with a jugular vein catheter (Charles River), was shaved and the skin was then cleaned using an Electrode Prep Pad (Professional Disposables, Inc, Cat #B59800). […]
Blood (400 μl) was withdrawn from the catheters in each rat every 30 minutes, transferred to 1.5 ml centrifuge tubes containing heparin (15 units/tube), and the plasma was separated by centrifugation from the cellular components. The plasma samples were maintained at 4 deg C. until analyzed. […]
The ultra-filtrates were subjected to reverse-phase liquid chromatography using a 150×2.1 mm Agilent C8 reverse-phase column on a Shimadzu Prominence LC, eluting the MCD-386 with an isocratic flow of 2% acetonitrile+0.1% formic acid. The concentration of MCD-386 in the column effluent was measured using an Applied Biosystems API-3200 triple quadrupole mass spectrometer equipped with a Turbo V source (electrospray sample injection) system. […]

[5] = Blood and brain concentrations (rats) after oral gavage; format: in vivo, rat; conditions: for Brain Cmax (10 mg/kg po) 1 hr MCD-386 = 1.00: rat brain, relative to MCD-386
Experimental: Long-Evans Hooded rats (Charles River: male, 250-350 g) were dosed with solutions of test compounds in PBS by oral gavage. At the desired time after dosing, the animals were anesthetized with isoflurane, and then euthanized by cervical dislocation. Blood was obtained by cardiac puncture, transferred to a 1.5 mL microcentrifuge tube containing 15U Heparin, and the plasma recovered after centrifugation. Brains were dissected, weighed, immediately chilled to 4° C., and homogenized using a PowerGen 125 homogenizer in five volumes of ice-cold 2% formic acid. Proteins were precipitated from plasma and brain homogenate with two and five volumes respectively of ice-cold 2% formic acid and clarified by centrifugation. The supernatant was ultra-filtered by centrifugation through a 3K MWCO spin column (Pall Life Sciences), following the manufacturer's instructions. The concentration of compound in the ultra-filtrate was subjected to reverse-phase liquid chromatography using a 150×2.1 mm Agilent C8 reverse-phase column on a Shimadzu Prominence LC, eluting the compounds with a gradient of 2% to 50% of acetonitrile+0.1% formic acid for compound MI-50,382, or an isocratic flow of 2% acetonitrile+0.1% formic acid for the rest of the compounds listed. The concentration of the compound in the column effluent was measured using an Applied Biosystems API-3200 triple quadrupole mass spectrometer equipped with an electrospray sample injection system. The counts of the characteristic parent and product ions of each test compound were converted to concentration units by comparison with a standard calibration curve.

rats = assay: Muscarinic effects in vivo (salivary flow) in rats dosed orally; parameters: species or system rat
rat M1 receptors = molecular target: T2, rat M1 receptors (Rattus norvegicus, UniProt P08482); assay: PI turnover (inositol phosphate production) in M1-CHO cells; format: cell-based; conditions: for Muscarinic agonist activity by PI turnover: cell lines expressing M1 and M3 subtypes
T2 construct: host or cells: Chinese Hamster Ovary cells (M1-CHO)
T2 sequence (P08482 1-460): T1 sequence (P11229 1-460) with A5V, T254S, P309S, R320K, A337G, I413V
Experimental: (§1) The medium was changed to 70 μL/well of inositol-free DMEM containing 2 mM glutamine, 10% FBS and 10 μCi/ml of [3H]-inositol (PE:cat #NET114A250UC), incubated overnight as above, then 100 μL of a solution of the test compound in HBSS containing 10 mM LiCl and 20 mM HEPES, pH 7.4 was added, incubation was continued for 60 min under the above conditions, and the test was stopped by removing the test compound and replacing with 100 μL of 50 mM formic acid in water at 4° C.

rat M3 receptors = molecular target: T3, rat M3 receptors (Rattus norvegicus, UniProt P08483); assay: PI turnover (inositol phosphate production) in M3-CHO cells; format: cell-based; conditions: mean Smax relative to mean Smax for carbachol (100)
T3 construct: host or cells: Chinese Hamster Ovary cells (M3-CHO)
Experimental: as §1

[6] = Metabolites in serum and urine of dosed rats; format: in vivo; conditions: rat serum/plasma or urine
Experimental: Oxadiazoles disclosed herein as well as other oxadiazoles were investigated to determine the formation of metabolites. Animals were dosed, blood taken, serum prepared, serum proteins precipitated and ultrafiltrates prepared as described in Example 6. In separate experiments, urine was collected from rats for 16-24 hours after dosing, using standard metabolic cages. The urine container and collected urine were maintained at 4° C. Urine was lyophilized, taken back into water. The ultrafiltrate was prepared by adding formic acid to a final concentration of 1% to the urine samples, then filtered through a 0.2 um nylon membrane. The ultrafiltrate was subjected to LC-MS analysis. Instead of measuring the product ions in Q3, manual Q1 scans of the liquid chromatograph were undertaken, seeking parent ions of potential metabolites of the compounds. The criteria for identifying metabolites were as follows: (1) the ion should be present in the sera or urines of dosed rats, but not in sera or urines from non-dosed rats (2) the ion should be identifiable as a metabolic derivative of the dosed compound (e.g. loss of a functional chemical moiety, addition of a hydroxyl group or a glucuronic acid moiety, etc). Metabolites were determined not to be present if no compound meeting the above criteria could be detected in serum or urine.

T3 sequence (P08483 whole entry): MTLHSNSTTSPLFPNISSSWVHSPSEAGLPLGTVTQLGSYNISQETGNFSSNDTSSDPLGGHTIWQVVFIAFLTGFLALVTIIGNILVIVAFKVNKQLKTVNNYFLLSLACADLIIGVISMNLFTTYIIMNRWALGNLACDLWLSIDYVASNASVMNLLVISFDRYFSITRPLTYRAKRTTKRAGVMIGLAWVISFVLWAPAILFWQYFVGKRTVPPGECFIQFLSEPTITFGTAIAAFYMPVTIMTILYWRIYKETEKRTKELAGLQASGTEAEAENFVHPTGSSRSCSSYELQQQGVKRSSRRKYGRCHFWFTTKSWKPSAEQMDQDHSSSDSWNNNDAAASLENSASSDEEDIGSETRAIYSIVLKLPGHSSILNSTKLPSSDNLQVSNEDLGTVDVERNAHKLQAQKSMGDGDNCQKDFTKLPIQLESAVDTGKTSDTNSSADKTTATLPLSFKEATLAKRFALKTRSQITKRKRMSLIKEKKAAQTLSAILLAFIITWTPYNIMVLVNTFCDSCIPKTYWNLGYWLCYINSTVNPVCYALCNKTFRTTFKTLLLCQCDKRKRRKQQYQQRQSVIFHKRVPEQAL

SMILES | Metabolism in human liver microsomes [1] | PAMPA units (PAMPA test) | Brain Cmax (10 mg/kg po) 1 hr MCD-386 = 1.00 [5] | Muscarinic agonist activity by PI turnover (rat M1 receptors) | M3/CHO PI turnover Relative Mean Smax (rat M3 receptors) | further results
Cc1noc(C2=CCCN(C)C2)n1 [Compound 36, 3-methyl-5-(1-methyl-1,2,5,6-tetrahydropyridin-3-yl)-1,2,4-oxadiazole, reference compound] | nearly completely metabolized | 12.75 |  |  |  | Metabolism in rat liver microsomes [2]: nearly completely metabolized; Selectivity for M1 versus M3 receptors [3]: some selectivity for M1 versus M3 receptors
CCc1noc(C2CN=CNC2)n1 (centres unmarked) [MCD-386, 5-(3-ethyl-1,2,4-oxadiazol-5-yl)-1,4,5,6-tetrahydropyrimidine] |  | 0.05 | 1.00 |  |  | Bioavailability by transdermal delivery versus oral administration [4]: up to three times higher
Cl.[2H]C([2H])([2H])c1noc(C2CN=CNC2)n1 (centres unmarked) [compound 4, 3-(d3-methyl)-5-(1,4,5,6-tetrahydropyrimidin-5-yl)-1,2,4-oxadiazole hydrochloride] |  |  |  | near full-agonist | 92.6 | Salivary flow (rats; rats, dosed orally): copious salivary flow, which was relatively short-lived; Functional selectivity for M1 subtype by PI turnover (rat M1 receptors; M1 versus M3 cell lines): not selective for the M1 subtype
[2H]C([2H])([2H])c1noc(C2CCCNC2)n1 (centres unmarked) [compound 7, 3-D3-Methyl-5-(piperidin-3-yl)-1,2,4-oxadiazole] | metabolized significantly less in human liver microsomes than in rat liver microsomes |  | 2.16 | relatively low | 0 | Muscarinic agonist activity in vivo (rats; in vivo): demonstrated muscarinic agonist activity in vivo; M1/CHO PI turnover Relative Mean Smax (rat M1 receptors; mean Smax relative to mean Smax for carbachol (100)): 2.7; Presence of metabolites (10 mg/kg po) [6]: No metabolites were identified and No; Plasma concentration relative to compound 1 ([5]; after oral dosing to rats): approximately 2.4 times; Penetration into the brain ([5]; rats after oral dosing): penetrated into the brain
